Experimental data as given in patent US20240043928A1, “BIOMARKERS FOR MYELODYSPLASTIC SYNDROME (MDS) AND METHODS OF USING THE SAME” (Eisai R&D Management Co., Ltd., priority 2020, published 2024).

Test system: patients with myelodysplastic syndrome (MDS), chronic myelomonocytic leukemia (CMML), or acute myeloid leukemia (AML)
Test: Phase I study NCT02841540: clinical response and transfusion independence
Assay type: in vivo, human
Description: Clinical responses were assessed using the 2006 International Working Group (IWG) response criteria for MDS (Cheson et al. Blood. 2006;108:419-425), the IWG 2003 criteria for AML, and the 2015 international consortium proposal of uniform response criteria for myelodysplastic/myeloproliferative neoplasms (MDS/MPN) and CMML (Savona et al. Blood. 2015;125(12):1857-1865). Peripheral blood sampling, bone marrow aspirates, bone marrow biopsies, marrow cytogenetics, and cellular composition by flow cytometry were performed at the time of screening, and after Cycles 1, 2, and 4. Beyond Cycle 4, bone marrow aspirates were performed as clinically indicated based on changes in peripheral blood count, or as needed to establish either complete response or disease progression. An independent central confirmation and interpretation was performed for disease assessments.

[1] = patient: CMML, IPSS Lower, starting dose 7 mg
[2] = patient: MDS (baseline Hb 9.1 g/dL), IPSS Lower, starting dose 5 mg
[3] = patient: MDS, IPSS Higher, starting dose 2 mg
[4] = patient: MDS, IPSS Higher, starting dose 7 mg
[5] = patient: MDS, IPSS Lower, donor one, starting dose 7 mg
[6] = patient: MDS, IPSS Lower, starting dose 2 mg (7 mg during last two RBC TI periods)
[7] = patient: MDS, IPSS Lower, starting dose 3.5 mg
[8] = patient: MDS/MPN (RARS-T), IPSS Lower, starting dose 2 mg

Q: What does the source list for `C/C(=C\C=C\[C@@H](C)c1ccccn1)[C@H]1OC(=O)C[C@H](O)CC[C@@](C)(O)[C@@H](OC(=O)N2CCN(C)CC2)/C=C/[C@@H]1C` [Compound 1, (2S,3S,4E,6S,7R,10R)-7,10-dihydroxy-3,7-dimethyl-12-oxo-2-[(2E,4E,6R)-6-(pyridine-2-yl)hepta-2,4-dien-2-yl]oxacyclododec-4-en-6-yl-4-methylpiperazine-1-carboxylate]?
A: RBC TI periods (4 patients with SF3B1 mutations and a diagnosis of AML): No RBC TI periods were observed; patients who experienced events of RBC TI (5 of the 7 MDS patients with pre-treatment TMEM14C AJ/CJ >4.01): 71%; patients who experienced RBC TI events (5 of the 20 patients with missense SF3B1 mutations at study entry): 25%; patients with intervals of >56 days without RBC transfusions (9 of 62 patients transfusion dependent at study entry, as of April 2020, all Schedule I): 15%; RBC TI rate (CMML (1 subject)): 25%; RBC TI rate (MDS (8 cases)): 19%; complete or partial responses meeting 2006 IWG criteria (all patients): No complete or partial responses; Median duration of RBC TI (human, in vivo): 13 weeks; Median time to onset of RBC TI (human, in vivo): 15 weeks; additional RBC TI cases, transfusion dependence prior to study entry not verified (human, in vivo): Two additional patients (1 AML, 1 MDS) experienced RBC TI periods of >56 days; clinical benefit (platelet response) (MDS/MPN criteria) (in the 4 subjects with CMML): 1; complete cytogenetic remission (MDS/MPN criteria) (in the 4 subjects with CMML): 1; patients who experienced RBC TI at the 7 mg dose (of the patients with RBC TI): Four of the 9; patients whose first RBC TI initiated in weeks 1-24 of the study (of the patients with RBC TI): 8 of the 9; platelet transfusion independence without RBC TI (one higher risk MDS patient, 7 mg, Schedule II): 22 week; Longest RBC TI Period [1]: 66 days; Number of RBC TI Periods [1]: 1; Time to First RBC TI [1]: 4 days; Longest RBC TI Period [2]: 87 days; Number of RBC TI Periods [2]: 1; Time to First RBC TI [2]: 398 days; Longest RBC TI Period [3]: 121 days; Number of RBC TI Periods [3]: 1; Time to First RBC TI [3]: 126 days; Longest RBC TI Period [4]: 107 days; Number of RBC TI Periods [4]: 1; Time to First RBC TI [4]: 104 days; Longest RBC TI Period [5]: 98 days; Number of RBC TI Periods [5]: 4; Time to First RBC TI [5]: 73 days; Longest RBC TI Period [6]: 85 days; Number of RBC TI Periods [6]: 5; Time to First RBC TI [6]: 88 days; Longest RBC TI Period [7]: 98 days; Number of RBC TI Periods [7]: 2; Time to First RBC TI [7]: 101 days; Longest RBC TI Period [8]: 56 days; Number of RBC TI Periods [8]: 1; Time to First RBC TI [8]: 111 days; period of platelet transfusion independence (the CMML patient with RBC TI): 21 week
